Results from patent publication US20240141408A1, “CELL-BASED ASSAY FOR IDENTIFICATION OF ACTIVATORS OF GAMMA-SECRETASE” (The Brigham and Women’s Hospital, Inc., priority 2021, published 2024).

Test system: γ-secretase
Assay: Notch target gene reporter (Hes1-Luc / NotchΔE) luciferase assay in stable MEFs
Assay type: cell-based, mouse
Settings: L435F KI/+ stable cells, clone A23; FIG. 4
Procedure: For screening, cells were seeded in 384-well plates using Thermo Multidrop Combi at a density of 2,500 cells in 30 μl media and compounds were transferred by Seiko Compound Transfer Robot on the same day. For dose response, compounds were dispensed via the Hewlett Packard D300.
The steady glo luciferase assay system (Promega) was used to determine firefly luciferase activity per manufacturer's instructions. Luciferase activity was detected 24 hours after transfection using a plate reader (Perkin Elmer EnVision).
MEFs (1.5×10^6) were seeded in two 10-cm tissue culture plates; one to be used as a negative control. The next day, one plate is transfected with 9 μg CMV-NotchΔE (neomycin) and […] Hes1Luciferase (hygromycin) plasmids. 24-hours later, cells in both plates were passaged 1:100, 1:200 and 1:1000 and maintained in DMEM media supplied with 10% FBS, 100 ug/ml Hygromycin, and 200 μg/ml G418. Media was changed every 3 days and cells were checked daily ensuring that cells in the untransfected plates (negative control) have died. Within two weeks, hygromycin/G418 resistant colonies were formed with a diameter of approximately 5 mm. Each clone was transferred into a separate well of a 24-well plate. When confluent, MEFs were transferred into 6-well plates then into 10 cm dishes. For each clone, some cells were frozen while others harvested to test luciferase and notchΔE expression via luciferase assay, western blot and Q-RT-PCR.
For the identification of compounds that could increase the activity of γ-secretase, a Notch target gene reporter system was created. It contains two plasmids: Hes1 proximal promoter containing two Notch responsive CBF1/RBPJκ binding sites driving expression of a firefly luciferase in a hygromycin resistant plasmid (Hes1-Luc-Hygro), and CMV promoter and NotchΔE cloned in a neomycin resistant plasmid (CMV-NΔE-Neo) (FIG. 1A).
For the identification of compounds that could increase γ-secretase activity, L435F KI/+ stable cells expressing both CMV-NΔE-Neo and Hes1-Luc-hygro were generated. Luciferase expression in the selected clones was confirmed via a luciferase assay (FIG. 3A). We also performed quantitative RTPCR using primers specific for luciferase and Notch-cMyc to confirm their expression (FIG. 3B-C).
After generating the stable cells, 384-well plates were optimized in the EnVision plate reader for plate dimension, and crosstalk correction. To provide a robust (high Z′ factor) HTS-compatible assay, four clones expressing different levels of NotchΔE and luciferase (FIG. 3A-C, black arrows) were compared to identify the maximum difference in signal between DMSO, and DAPT (γ-secretase inhibitor), as well as genetic positive (a clone expressing high levels of luciferase) controls. […]

Compound: C[C@H](NC(=O)Cc1cc(F)cc(F)c1)C(=O)N[C@H](C(=O)OC(C)(C)C)c1ccccc1 [DAPT]
- luciferase activity: reduction of luciferase activity

Compound: COc1ccc2c(c1)c(CC(=O)O)c(C)n2C(=O)c1ccc(Cl)cc1 [Indomethacin]
- luciferase activity: lesser effect

Compound: CC(C)C[C@H](NC(=O)[C@H](Cc1ccccc1)C[C@@H](O)[C@H](Cc1ccccc1)NC(=O)OC(C)(C)C)C(=O)N[C@@H](Cc1ccccc1)C(N)=O [L685,458]
- luciferase activity: reduction of luciferase activity

Compound: C[C@@H](C(=O)O)c1ccc(-c2ccccc2)c(F)c1 [R-Flurbiprofen]
- luciferase activity: lesser effect
